The supplement of paper PMC10307832

Assays:
Assay in all cases: relative viability (nuclei count vs DMSO), 5 days (fraction); higher = more cells survive
IPA-3 = compound: C1=CC=C2C(=C1)C=CC(=C2SSC3=C(C=CC4=CC=CC=C43)O)O [IPA-3]
Summary of the method: (§1)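 Lung cancer cell lines were seeded into 1536-well plates, kept overnight at 37 °C and pinned with five library-drug doses (not always all listed) spaced by √10. After 5 days, nuclei were Hoechst-stained, imaged at 4× and counted with MetaXpress. Viability is treated-well nuclei over vehicle-well nuclei, taken as a median across plates. Plates needed control CV below 25% and at least one doubling.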

Doramapimod = compound: Cc1ccc(-n2nc(C(C)(C)C)cc2NC(=O)Nc2ccc(OCCN3CCOCC3)c3ccccc23)cc1 [Doramapimod]
Summary of the method: as §1

RAF265 = compound: Cn1c(Nc2ccc(C(F)(F)F)cc2)nc2cc(Oc3ccnc(-c4ncc(C(F)(F)F)[nH]4)c3)ccc21 [RAF265]
Summary of the method: as §1

Row | Cell Line | relative viability (IPA-3; 0.2 µM) | relative viability (IPA-3; 0.6325 µM) | relative viability (IPA-3; 2 µM) | relative viability (IPA-3; 6.325 µM) | relative viability (IPA-3; 20 µM) | relative viability (Doramapimod; 0.02 µM) | relative viability (Doramapimod; 0.06325 µM) | relative viability (Doramapimod; 0.2 µM) | relative viability (Doramapimod; 0.6325 µM) | relative viability (Doramapimod; 2 µM) | relative viability (RAF265; 0.01 µM) | relative viability (RAF265; 0.03162 µM) | relative viability (RAF265; 0.1 µM) | relative viability (RAF265; 0.3162 µM) | relative viability (RAF265; 1 µM)
1 | NCI-H650 | 1.2 | 0.977 | 0.861 | 1.03 | 1.12 | 0.965 | 1.02 | 1.11 | 0.901 | 0.913 | 1.07 | 0.845 | 0.969 | 0.615 | 0.51
2 | NCI-H661 | 1.09 | 0.951 | 0.984 | 1 | 1.01 | 0.978 | 1.02 | 0.995 | 1.06 | 0.915 | 1.01 | 0.962 | 0.774 | 0.643 | 0.57
3 | NCI-H727 | 0.929 | 0.938 | 0.816 | 0.901 | 0.899 | 0.971 | 0.972 | 1.05 | 0.885 | 0.787 | 0.932 | 0.908 | 0.834 | 0.7 | 0.62
4 | NCI-H838 | 1.08 | 0.942 | 0.972 | 0.969 | 1.1 | 0.993 | 1.02 | 1.06 | 1.05 | 0.949 | 0.981 | 1 | 0.973 | 0.93 | 0.773
5 | NCI-H1299 | 1.1 | 0.995 | 1.02 | 0.94 | 0.98 | 1.04 | 1.02 | 1.02 | 1.05 | 0.967 | 1.08 | 0.97 | 0.961 | 0.793 | 0.616
6 | NCI-H1355 | 1.11 | 0.98 | 0.988 | 0.965 | 0.98 | 1.02 | 0.984 | 0.939 | 1.03 | 0.86 | 1 | 0.943 | 0.895 | 0.72 | 0.441
7 | NCI-H1395 | 1.04 | 0.947 | 0.879 | 0.918 | 1.04 | 1.01 | 1.18 | 1.07 | 0.94 | 0.831 | 1.03 | 0.866 | 0.899 | 0.774 | 0.689
8 | NCI-H1437 | 1.13 | 1.01 | 0.994 | 1.04 | 1.08 | 1.05 | 1.05 | 0.985 | 1.07 | 0.948 | 1.02 | 0.99 | 1.01 | 1.03 | 0.954
9 | NCI-H1563 | 1.09 | 0.959 | 1.01 | 1.1 | 1.17 | 0.996 | 0.996 | 1.11 | 1.28 | 1.06 | 1.06 | 1.05 | 1.01 | 1.03 | 0.932
10 | NCI-H1623 | 1.07 | 0.943 | 0.971 | 0.951 | 0.993 | 0.986 | 0.982 | 0.944 | 0.775 | 0.88 | 1.06 | 0.945 | 1.09 | 0.456 | 0.798
11 | NCI-H1648 | 1.25 | 0.889 | 1.02 | 0.65 | 0.793 | 0.925 | 1.19 | 0.898 | 0.835 | 0.719 | 0.936 | 0.842 | 0.919 | 0.593 | 0.589
12 | NCI-H1650 | 1.13 | 0.787 | 0.931 | 1.01 | 1 | 0.998 | 0.99 | 1.17 | 1.2 | 0.966 | 1.09 | 0.904 | 1.11 | 0.75 | 0.765
13 | NCI-H1651 | 1.18 | 0.952 | 1.03 | 1.02 | 1.08 | 0.938 | 0.934 | 1.03 | 1.1 | 0.968 | 1 | 1 | 0.961 | 0.901 | 0.785
14 | NCI-H1666 | 1.15 | 0.978 | 1.02 | 1.08 | 1.12 | 1.06 | 1.03 | 1 | 1.11 | 1.01 | 1.07 | 1.01 | 1.01 | 1.01 | 0.795
15 | NCI-H1703 | 1.27 | 0.86 | 1.02 | 0.935 | 1.04 | 0.923 | 0.918 | 0.876 | 1.11 | 0.612 | 0.783 | 0.792 | 0.831 | 0.652 | 0.352
16 | NCI-H1734 | 1.22 | 1 | 0.972 | 0.992 | 0.908 | 0.949 | 0.855 | 0.868 | 1.02 | 0.769 | 1.05 | 0.832 | 0.87 | 0.738 | 0.521
17 | NCI-H1755 | 1.08 | 0.922 | 1.04 | 1.01 | 1.12 | 0.966 | 0.958 | 1.03 | 0.988 | 0.997 | 1.1 | 1.01 | 0.984 | 0.889 | 0.638
18 | NCI-H1792 | 1.32 | 0.794 | 0.952 | 0.809 | 1.08 | 0.954 | 0.869 | 0.971 | 0.913 | 0.715 | 0.893 | 0.73 | 0.648 | 0.246 | 0.249
19 | NCI-H1793 | 1.14 | 0.768 | 0.884 | 1.09 | 1.04 | 0.894 | 0.843 | 0.896 | 0.94 | 0.884 | 1.1 | 0.856 | 0.731 | 0.321 | 0.48
20 | NCI-H1915 | 1.1 | 0.997 | 0.989 | 0.96 | 1.01 | 0.986 | 0.994 | 1.04 | 0.99 | 0.885 | 0.987 | 0.915 | 0.757 | 0.489 | 0.3
